# Results from US9329170B2, “Single cell gene expression for diagnosis, prognosis and identification of drug targets” (The Board of Trustees of the Leland Stanford Junior …, priority 2009, dated 2016).
# Tested on: murine breast cancer stem cells
# Experiment: clonogenic ability of murine breast cancer stem cells
# Type: cell-based
# Settings: short, 24 hour exposure to the inhibitor; p<0.02, t test
# Procedure: Many of these genes have been linked to self renewal and cancer. These include the insulin growth factor binding partner IGFBP3, the HOX family members HOXA3, HOXA5, ME1S1 as well as transcription factors like ETS1, ETS2, RUNX2 and STAT3. It was tested whether the transcription factor STAT3 is a bona fide cancer stem cell regulator. STAT3 plays a role in the maintenance of both ES cells and HSCs. […] Next, when we examined immunochemistry analysis of breast tumors the STAT3 positive cells tended to be concentrated on the invasive edge of the cancer and the protein was not seen in the more differentiated-looking cells in the interior parts of tumors. Finally, there are small molecule inhibitors of STAT3. Such inhibitors can be tested in cancer stem cell models. The effect of the STAT3 inhibitor cucurbitacin on the clonogenic ability of murine breast cancer stem cells was tested.
substance,measurement,value
cucurbitacin,reduction of the number of colonies,~50%
